# Experimental data reported in US20090170838A1, “Bicycloheteroaryl compounds as P2X7 modulators and uses thereof” (Renovis, Inc., priority 2005, published 2009).
# Target: T1, P2X7 receptor (Homo sapiens, UniProt Q99572)
# T1 construct: host or cells: THP-1 cells differentiated with LPS and IFN-γ
# T1 sequence (Q99572 1-595): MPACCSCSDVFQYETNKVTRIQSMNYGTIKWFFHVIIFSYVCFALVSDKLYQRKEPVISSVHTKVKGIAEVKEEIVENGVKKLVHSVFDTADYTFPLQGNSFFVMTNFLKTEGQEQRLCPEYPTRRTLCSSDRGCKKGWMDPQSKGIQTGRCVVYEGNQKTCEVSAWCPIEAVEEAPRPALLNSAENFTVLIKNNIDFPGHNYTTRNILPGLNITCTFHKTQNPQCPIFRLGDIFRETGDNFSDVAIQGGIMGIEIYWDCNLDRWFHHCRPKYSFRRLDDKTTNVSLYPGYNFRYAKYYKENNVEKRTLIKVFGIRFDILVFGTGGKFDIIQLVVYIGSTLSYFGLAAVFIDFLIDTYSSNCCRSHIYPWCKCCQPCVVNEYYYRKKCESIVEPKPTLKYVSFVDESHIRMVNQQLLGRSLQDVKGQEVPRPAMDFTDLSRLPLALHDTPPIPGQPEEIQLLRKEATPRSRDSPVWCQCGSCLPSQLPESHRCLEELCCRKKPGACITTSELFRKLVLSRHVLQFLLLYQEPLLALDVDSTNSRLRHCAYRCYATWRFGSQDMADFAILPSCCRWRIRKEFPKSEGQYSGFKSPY
# Assay: IL-1β release assay (BzATP-stimulated, LPS/IFN-γ differentiated THP-1 cells, ELISA)
# Assay type: cell-based
# Conditions: at 0.1 μM (asterisk symbols)
# Protocol: THP-1 cells (ATCC Cat # 285-IF-100) are plated in 96 well plates at a concentration of 200,000 cells per well and allowed to differentiate in RPMI-1640 media (ATCC Cat # 30-2001) containing 10% FBS, 100 IU/mL penicillin, 100 ug/mL streptomycin, 100 ng/mL LPS and 100 ng/mL IFN-γ for 16 hours. Following differentiation, the cells are treated for an additional 2 hours in RPMI-1640 media containing 100 IU/mL penicillin, 100 ug/mL streptomycin and fresh LPS at 100 ng/mL. The cells are then pretreated for 30 minutes with the compound of interest at the appropriate concentration in RPMI media containing 100 IU/mL penicillin, 100 ug/mL streptomycin. Following the pretreatment 2′,3′-O-(4-benzoylbenzoyl)-adenosine 5′-triphosphate (Sigma Aldrich Cat# B6396) is added to a final concentration of 250 uM and the cells incubated for an additional 45 minutes. 30 uL of cell supernatant is then collected and […] levels determined via ELISA (R&D systems Cat. # HSLB50) according to manufacturer's recommendations using the Tecan Safire plate reader. Background adjusted IL-1β levels of drug treated and non-treated cells are used to calculate the percent inhibition.
row,inhibition at 0.1 µM,Structure (SMILES)
1,50 to 75%,CC12CC3CC(C)(C1)CC(CC(=O)Nc1cccc4c(=O)n(CCc5ccccn5)ccc14)(C3)C2 [Compound 752]
2,≥ 75%,CC12CC3CC(C)(C1)CC(CC(=O)Nc1cccc4c(=O)n(Cc5ccc(C(F)(F)F)cc5)ccc14)(C3)C2 [Compound 753]
3,≥ 75%,CC12CC3CC(C)(C1)CC(CC(=O)Nc1cccc4c(=O)n(Cc5ccc(F)cc5)ccc14)(C3)C2 [Compound 754]
4,≥ 75%,CC12CC3CC(C)(C1)CC(CC(=O)Nc1cccc4c(=O)n(Cc5ccncc5)ccc14)(C3)C2 [Compound 755]
5,50 to 75%,CC12CC3CC(C)(C1)CC(CC(=O)Nc1cccc4c(=O)n(Cc5cccnc5)ccc14)(C3)C2 [Compound 756]
6,≥ 75%,Cc1cnc(Cn2ccc3c(NC(=O)CC45CC6CC(C)(CC(C)(C6)C4)C5)cccc3c2=O)cn1 [Compound 757]
7,≥ 75%,CC12CC3CC(C)(C1)CC(CC(=O)Nc1cccc4c(=O)n(Cc5cn6ccccc6n5)ccc14)(C3)C2 [Compound 758]
8,50 to 75%,CC12CC3CC(C)(C1)CC(CC(=O)Nc1cccc4c(=O)n(Cc5ccc(S(C)(=O)=O)cc5)ccc14)(C3)C2 [Compound 759]
9,25 to 50%,CC12CC3CC(C)(C1)CC(CC(=O)Nc1cccc4c(=O)n(Cc5ccco5)ccc14)(C3)C2 [Compound 760]
10,50 to 75%,Cc1cc(Cn2ccc3c(NC(=O)CC45CC6CC(C)(CC(C)(C6)C4)C5)cccc3c2=O)no1 [Compound 761]
11,50 to 75%,CC12CC3CC(C)(C1)CC(CC(=O)Nc1cccc4c(=O)n(CC5COCCO5)ccc14)(C3)C2 (centres unmarked) [Compound 762]
12,25 to 50%,CN(C)CCn1ccc2c(NC(=O)CC34CC5CC(C)(CC(C)(C5)C3)C4)cccc2c1=O [Compound 763]

# Same assay, conditions: at 0.3 μM (plus symbols)
row,Structure (SMILES),inhibition at 0.3 µM
1,"O=C(CC12CC3CC(CC(C3)C1)C2)Nc1cccc2c(=O)n(Cc3ccccc3)ccc12 [Compound 701, 2-adamantan-1-yl-N-(2-benzyl-1-oxo-1,2-dihydro-isoquinolin-5-yl)-acetamide]",≥ 75%
2,"O=C(CC12CC3CC(CC(C3)C1)C2)Nc1cccc2c(=O)n(Cc3ccc(F)cc3)ccc12 [Compound 703, 2-Adamantan-1-yl-N-[2-(4-fluoro-benzyl)-1-oxo-1,2-dihydro-isoquinolin-5-yl]-acetamide]",≥ 75%
3,O=C(CC12CC3CC(CC(C3)C1)C2)Nc1cccc2c1CCN(Cc1ccc(F)cc1)C2=O [Compound 704],≥ 75%
4,O=C(CC12CC3CC(CC(C3)C1)C2)Nc1cccc2c(=O)n(Cc3ccc(F)cc3F)ccc12 [Compound 705],≥ 75%
5,O=C(CC12CC3CC(CC(C3)C1)C2)Nc1cccc2c(=O)n(Cc3ccccc3F)ccc12 [Compound 706],≥ 75%
6,O=C(CC12CC3CC(CC(C3)C1)C2)Nc1cccc2c(=O)n(Cc3ccccc3Cl)ccc12 [Compound 708],≥ 75%
7,Cc1cnc(Cn2ccc3c(NC(=O)CC45CC6CC(CC(C6)C4)C5)cccc3c2=O)cn1 [Compound 710],≥ 75%
8,CC(c1ccccc1)n1ccc2c(NC(=O)CC34CC5CC(CC(C5)C3)C4)cccc2c1=O (centres unmarked) [Compound 711],≥ 75%
9,O=C(CC12CC3CC(CC(C3)C1)C2)Nc1cccc2c(=O)n(Cc3ccco3)ccc12 [Compound 712],≥ 75%
10,O=C(CC12CC3CC(CC(C3)C1)C2)Nc1cccc2c(=O)n(Cc3ccc(C(F)(F)F)cc3)ccc12 [Compound 713],≥ 75%
11,O=C(CC12CC3CC(CC(C3)C1)C2)Nc1cccc2c(=O)n(Cc3ccccn3)ccc12 [Compound 714],≥ 75%
12,O=C(CC12CC3CC(CC(C3)C1)C2)Nc1cccc2c(=O)n(Cc3cccnc3)ccc12 [Compound 715],≥ 75%
13,O=C(CC12CC3CC(CC(C3)C1)C2)Nc1cccc2c(=O)n(Cc3ccncc3)ccc12 [Compound 716],≥ 75%
14,Cc1nn(C)c(C)c1Cn1ccc2c(NC(=O)CC34CC5CC(CC(C5)C3)C4)cccc2c1=O [Compound 718],≥ 75%
15,Cc1cc(Cn2ccc3c(NC(=O)CC45CC6CC(CC(C6)C4)C5)cccc3c2=O)nn1C [Compound 719],25 to 50%
16,C[C@@H](c1ccccc1)n1ccc2c(NC(=O)CC34CC5CC(CC(C5)C3)C4)cccc2c1=O [Compound 720],≥ 75%
17,C[C@H](c1ccccc1)n1ccc2c(NC(=O)CC34CC5CC(CC(C5)C3)C4)cccc2c1=O [Compound 721],≥ 75%

row,Structure (SMILES),inhibition at 0.3 µM
1,O=C(CC12CC3CC(CC(C3)C1)C2)Nc1cccc2c(=O)n(Cc3c(F)cccc3Cl)ccc12 [Compound 722],≥ 75%
2,Cc1ccccc1Cn1ccc2c(NC(=O)CC34CC5CC(CC(C5)C3)C4)cccc2c1=O [Compound 723],≥ 75%
3,O=C(CC12CC3CC(CC(C3)C1)C2)Nc1cccc2c(=O)n(CC3COCCO3)ccc12 (centres unmarked) [Compound 724],≥ 75%
4,"O=C(CC12CC3CC(CC(C3)C1)C2)Nc1cccc2c1CCN(Cc1ccc(F)cc1F)C2=O [Compound 725, 2-Adamantan-1-yl-N-[2-(2,4-difluoro-benzyl)-1-oxo-1,2,3,4-tetrahydro-isoquinolin-5-yl]-acetamide]",≥ 75%
5,O=C(CC12CC3CC(CC(C3)C1)C2)Nc1cccc2c1CCN(CC1CCCO1)C2=O (centres unmarked) [Compound 726],≥ 75%
6,O=C(CC12CC3CC(CC(C3)C1)C2)Nc1cccc2c1CCN(Cc1cccnc1)C2=O [Compound 728],≥ 75%
7,Cc1nn(C)c(C)c1CN1CCc2c(NC(=O)CC34CC5CC(CC(C5)C3)C4)cccc2C1=O [Compound 729],≥ 75%
8,O=C(CC12CC3CC(CC(C3)C1)C2)Nc1cccc2c1CCN(Cc1ccco1)C2=O [Compound 730],≥ 75%
9,CC(c1ccccc1)N1CCc2c(NC(=O)CC34CC5CC(CC(C5)C3)C4)cccc2C1=O (centres unmarked) [Compound 731],≥ 75%
10,Cc1cnc(CN2CCc3c(NC(=O)CC45CC6CC(CC(C6)C4)C5)cccc3C2=O)cn1 [Compound 732],≥ 75%
11,O=C(CC12CC3CC(CC(C3)C1)C2)Nc1cccc2c(=O)n(Cc3c(F)cccc3F)ccc12 [Compound 733],≥ 75%
12,O=C(CC12CC3CC(CC(C3)C1)C2)Nc1cccc2c(=O)n(CC3COc4ccccc4O3)ccc12 (centres unmarked) [Compound 734],≥ 75%
13,O=C(CC12CC3CC(CC(C3)C1)C2)Nc1cccc2c(=O)n(Cc3ccc(F)c(F)c3)ccc12 [Compound 735],≥ 75%
14,CN(C)CCn1ccc2c(NC(=O)CC34CC5CC(CC(C5)C3)C4)cccc2c1=O [Compound 736],≥ 75%
15,Cc1cc(Cn2ccc3c(NC(=O)CC45CC6CC(CC(C6)C4)C5)cccc3c2=O)no1 [Compound 737],≥ 75%
16,Cc1nn(-c2ccccc2)nc1Cn1ccc2c(NC(=O)CC34CC5CC(CC(C5)C3)C4)cccc2c1=O [Compound 738],≥ 75%

# Continued, values first:
row,inhibition at 0.3 µM,Structure (SMILES)
1,≥ 75%,O=C(CC12CC3CC(CC(C3)C1)C2)Nc1cccc2c(=O)n(C[C@@H]3CCCO3)ccc12 [Compound 739]
2,≥ 75%,CC12CC3CC(C)(C1)CC(CC(=O)Nc1cccc4c(=O)n(CCc5c[nH]cn5)ccc14)(C3)C2 [Compound 741]
3,≥ 75%,CC(c1ccccc1)n1ccc2c(NC(=O)CC34CC5CC(C)(CC(C)(C5)C3)C4)cccc2c1=O (centres unmarked) [Compound 742]
4,≥ 75%,CC12CC3CC(C)(C1)CC(CC(=O)Nc1cccc4c(=O)n(Cc5ccccc5F)ccc14)(C3)C2 [Compound 743]
5,≥ 75%,CC12CC3CC(C)(C1)CC(CC(=O)Nc1cccc4c(=O)n(Cc5ccccn5)ccc14)(C3)C2 [Compound 744]
6,≥ 75%,Cc1cc(Cn2ccc3c(NC(=O)CC45CC6CC(C)(CC(C)(C6)C4)C5)cccc3c2=O)nn1C [Compound 745]
7,≥ 75%,CN1CCC(Cn2ccc3c(NC(=O)CC45CC6CC(C)(CC(C)(C6)C4)C5)cccc3c2=O)CC1 [Compound 746]
8,≥ 75%,CN(C)c1ccc(Cn2ccc3c(NC(=O)CC45CC6CC(CC(C6)C4)C5)cccc3c2=O)cc1 [Compound 747]
9,≥ 75%,CC(C)(C)OC(=O)N1CCC(Cn2ccc3c(NC(=O)CC45CC6CC(CC(C6)C4)C5)cccc3c2=O)CC1 [Compound 748]
10,≥ 75%,O=C(CC12CC3CC(CC(C3)C1)C2)Nc1cccc2c(=O)n(CC3CCNCC3)ccc12 [Compound 749]
11,≥ 75%,CCN1CCCC1Cn1ccc2c(NC(=O)CC34CC5CC(CC(C5)C3)C4)cccc2c1=O (centres unmarked) [Compound 750]
